Tests used:
FITC-casein = test: fluorescence polarisation
ClpC1-WT–P1P2 = type: biochemical, Mycobacterium tuberculosis
ClpC1–Sa ClpP = type: biochemical, Mycobacterium tuberculosis ClpC1; Staphylococcus aureus ClpP
ClpC1-WT–ClpP1P2 [1] = type: biochemical, Mycobacterium tuberculosis
NMtb–ClpC = details: ref [26]; cited from earlier work
ClpC1-E288A with Sa ClpP = type: biochemical, Mycobacterium tuberculosis ClpC1; Staphylococcus aureus ClpP
Mtb cells = details: ref [19], cited from earlier work
ClpC1-F444S–ClpP1P2 [2] = type: biochemical, Mycobacterium tuberculosis
ClpC1-E626A with Sa ClpP = type: biochemical, Mycobacterium tuberculosis ClpC1; Staphylococcus aureus ClpP
ClpC1-E626A = type: biochemical, Mycobacterium tuberculosis
ClpC1-F444S–ClpP1P2 [3] = type: biochemical, Mycobacterium tuberculosis; remark: listed apart in the source
ClpC1-F444S–ClpP1P2 [4] = type: biochemical, Mycobacterium tuberculosis; remark: listed apart in the source
ClpC1-F444S [5] = type: biochemical, Mycobacterium tuberculosis
ClpC1-WT–ClpP1P2 [6] = type: biochemical, Mycobacterium tuberculosis; details: pH 7.5
ClpC1-F444S [7] = type: biochemical, Mycobacterium tuberculosis; remark: listed apart in the source
Sa ClpC = details: ref [26]; cited from earlier work
ClpC1-WT and ClpP1P2 = type: biochemical, Mycobacterium tuberculosis
ClpC1-F444S and ClpP1P2 = type: biochemical, Mycobacterium tuberculosis
ClpC1-E288A = type: biochemical, Mycobacterium tuberculosis

Substance: ATPase-deficient double Walker B variant ClpC1-E288A-E626A (from UniProt P9WPC9 1-848) (enzyme)
- Kd (FITC-casein): 1000 nM

Substance: CyclomarinA [CymA]
- effect on VapB15 degradation (ClpC1-WT–P1P2): minor inhibition
- effect on FITC-casein degradation by ClpC1–Sa ClpP (ClpC1–Sa ClpP): comparable to those determined for ClpC1–ClpP1P2 complexes
- inhibition of ClpC1-WT–ClpP1P2 activity (ClpC1-WT–ClpP1P2 [1]): did not observe strong inhibition
- increase of basal FITC-casein degradation activity (ClpC1-WT–ClpP1P2 [1]; pH 7.5): fourfold
- effect on ATPase and proteolytic activities of NMtb–ClpC (NMtb–ClpC): increases both ATPase and proteolytic activities
- effect on FITC-casein degradation (ClpC1-E288A with Sa ClpP): did not enhance FITC-casein degradation
- toxicity to Mtb cells (Mtb cells; [20], [21], [22]): highly toxic to Mtb cells
- cellular toxicity in Mtb cells (Mtb cells): severe cellular toxicity
- effect of CymA on GFP-SsrA degradation by ClpC1-F444S–ClpP1P2 (ClpC1-F444S–ClpP1P2 [2]): slightly reduced
- effect on FITC-casein degradation (ClpC1-E626A with Sa ClpP): did not enhance FITC-casein degradation
- effect on ATP hydrolysis of ClpC1-E626A (ClpC1-E626A): but not ClpC1-E626A
- effect of CymA on FITC-casein degradation by ClpC1-F444S–ClpP1P2 (ClpC1-F444S–ClpP1P2 [3]): further enhanced
- effect on VapB15 degradation (ClpC1-F444S–ClpP1P2 [4]): inhibitory effect
- change of mass profile (ClpC1-F444S [5]): No major changes in mass profiles
- enhancement of GFP-SsrA degradation (ClpC1-WT–ClpP1P2 [6]): 1.8 fold
- change of crosslink pattern / hexamer level (ClpC1-F444S [7]): remained the same
- sensitivity of Sa ClpC WT with native NTD to CymA (Sa ClpC): insensitive
- enhancement of FR-L-GFP degradation rate by CymA (ClpC1-WT and ClpP1P2): 1.6 fold
- reduction of ClpS-dependent FR-L-GFP degradation activity of ClpC1-F444S by CymA (ClpC1-F444S and ClpP1P2): 2.3 fold
- effect on ATP hydrolysis of ClpC1-E288A (ClpC1-E288A): stimulated ATP hydrolysis of ClpC1-E288A
